Measurements reported in PMC6478161 (Biochemistry, 2016).
Several values for one entry are separate records, joined by “and”; a condition that tells them apart may be missing. Identical values can stand only once. Each block holds one molecule with its values, some of them ahead of it.

Columns and labels:
WT LacY [1] = biological target: WT LacY (Escherichia coli, UniProt P02920); assay: ITC, sugar; format: binding
Mutant:Nb-9036 = Mutant:Nb-9036 (Escherichia coli, UniProt P02920, G262W/G46W); assay: ITC, α-NPG binding to double-Trp mutant:Nb-9036 complex
Mutant:Nb-9065 = Mutant:Nb-9065 (Escherichia coli, UniProt P02920, G262W/G46W); assay: ITC, α-NPG binding to double-Trp mutant:Nb-9065 complex
[2] = biological target: Double-Trp mutant (G46W/G262W LacY) (Escherichia coli, UniProt P02920, G262W/G46W); assay: ITC, α-NPG binding to double-Trp mutant LacY; conditions: ITC at 25 °C; no Nb
WT:Nb-9065 = WT:Nb-9065 (Escherichia coli, UniProt P02920); assay: ITC, α-NPG binding to WT LacY:Nb-9065 complex
WT:Nb-9036 = WT:Nb-9036 (Escherichia coli, UniProt P02920); assay: ITC, α-NPG binding to WT LacY:Nb-9036 complex
double-Trp mutant = conditions: cited from earlier work
WT LacY:Nb-9036 = biological target: T1, WT LacY:Nb-9036 (Escherichia coli, UniProt P02920); assay: ITC, IIA^Glc titration of WT LacY:Nb-9036 complex; format: binding; conditions: WT pre-equilibrated with Nb-9036; 10 mM melibiose
T1 sequence (P02920 whole entry, looked up): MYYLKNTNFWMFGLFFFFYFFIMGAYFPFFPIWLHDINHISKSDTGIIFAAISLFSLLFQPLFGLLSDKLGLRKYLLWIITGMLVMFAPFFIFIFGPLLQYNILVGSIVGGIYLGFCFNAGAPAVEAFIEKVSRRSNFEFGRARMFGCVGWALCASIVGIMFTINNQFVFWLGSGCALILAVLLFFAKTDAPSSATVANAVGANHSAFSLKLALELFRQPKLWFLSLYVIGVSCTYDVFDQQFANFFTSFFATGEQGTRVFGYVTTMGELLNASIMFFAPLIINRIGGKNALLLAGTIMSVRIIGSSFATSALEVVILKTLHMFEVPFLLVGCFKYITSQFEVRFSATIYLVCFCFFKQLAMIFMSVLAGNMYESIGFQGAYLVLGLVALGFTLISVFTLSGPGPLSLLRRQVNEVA

WT LacY [3] = biological target: T2, WT LacY (Escherichia coli, UniProt P02920); conditions: cytoplasmic face of the WT; cited from earlier work
T2 sequence (P02920 whole entry, looked up): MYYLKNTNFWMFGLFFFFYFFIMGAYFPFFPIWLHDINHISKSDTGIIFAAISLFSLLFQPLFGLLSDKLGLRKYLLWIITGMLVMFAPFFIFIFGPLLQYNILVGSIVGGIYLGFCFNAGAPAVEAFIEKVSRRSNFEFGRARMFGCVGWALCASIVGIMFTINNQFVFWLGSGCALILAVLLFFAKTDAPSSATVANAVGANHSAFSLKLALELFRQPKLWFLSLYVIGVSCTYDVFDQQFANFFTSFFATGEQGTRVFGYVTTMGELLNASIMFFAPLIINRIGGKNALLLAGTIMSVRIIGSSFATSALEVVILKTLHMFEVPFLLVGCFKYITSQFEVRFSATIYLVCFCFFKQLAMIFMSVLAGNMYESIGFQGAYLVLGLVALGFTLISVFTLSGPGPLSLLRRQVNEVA

WT LacY:Nb-9065 = biological target: T3, WT LacY:Nb-9065 (Escherichia coli, UniProt P02920); conditions: WT pre-equilibrated with Nb-9065; 10 mM melibiose
T3 sequence (P02920 whole entry, looked up): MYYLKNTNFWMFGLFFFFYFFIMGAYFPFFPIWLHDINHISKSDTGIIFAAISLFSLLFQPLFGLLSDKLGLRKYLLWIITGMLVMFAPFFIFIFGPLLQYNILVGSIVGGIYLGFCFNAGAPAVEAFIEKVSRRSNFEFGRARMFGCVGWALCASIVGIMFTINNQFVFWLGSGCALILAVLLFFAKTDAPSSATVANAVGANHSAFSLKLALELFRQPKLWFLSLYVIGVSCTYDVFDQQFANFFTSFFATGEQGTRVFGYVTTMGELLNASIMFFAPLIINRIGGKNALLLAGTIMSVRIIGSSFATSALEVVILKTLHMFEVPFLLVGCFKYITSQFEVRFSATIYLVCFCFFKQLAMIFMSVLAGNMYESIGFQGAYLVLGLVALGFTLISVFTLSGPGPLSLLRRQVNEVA

[4] = biological target: T4, lactose permease of Escherichia coli (LacY), wild type (Escherichia coli, UniProt P02920 1-417); assay: ITC
T4 sequence: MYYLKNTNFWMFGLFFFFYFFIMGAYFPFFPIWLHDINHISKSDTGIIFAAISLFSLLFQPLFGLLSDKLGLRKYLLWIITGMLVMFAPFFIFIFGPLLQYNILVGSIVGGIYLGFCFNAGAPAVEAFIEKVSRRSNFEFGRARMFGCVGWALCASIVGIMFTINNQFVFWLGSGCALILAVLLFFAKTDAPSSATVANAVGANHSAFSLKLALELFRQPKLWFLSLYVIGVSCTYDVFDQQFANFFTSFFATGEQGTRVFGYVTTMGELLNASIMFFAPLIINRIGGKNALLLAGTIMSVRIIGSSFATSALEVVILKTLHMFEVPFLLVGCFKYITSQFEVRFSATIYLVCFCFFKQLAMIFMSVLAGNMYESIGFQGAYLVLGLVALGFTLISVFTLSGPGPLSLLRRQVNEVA

[5] = ITC at 25 °C, mutant pre-incubated with Nb-9036
[6] = difference in the absence and presence of Nb-9036, mutant
[7] = difference in the absence and presence of Nb-9036, mutant, listed as galactoside
[8] = ITC at 25 °C, mutant pre-incubated with Nb-9065
[9] = difference in the absence and presence of Nb-9065, mutant
[10] = ITC at 25 °C, WT pre-incubated with Nb-9065
[11] = difference in the absence and presence of Nb-9065, WT
[12] = ITC at 25 °C, WT pre-incubated with Nb-9036
[13] = difference in the absence and presence of Nb-9036, WT
[14] = difference in the absence and presence of Nb-9036, WT, listed as galactoside

Chain of Mutant:Nb-9065 (P02920 whole entry G46W/G262W): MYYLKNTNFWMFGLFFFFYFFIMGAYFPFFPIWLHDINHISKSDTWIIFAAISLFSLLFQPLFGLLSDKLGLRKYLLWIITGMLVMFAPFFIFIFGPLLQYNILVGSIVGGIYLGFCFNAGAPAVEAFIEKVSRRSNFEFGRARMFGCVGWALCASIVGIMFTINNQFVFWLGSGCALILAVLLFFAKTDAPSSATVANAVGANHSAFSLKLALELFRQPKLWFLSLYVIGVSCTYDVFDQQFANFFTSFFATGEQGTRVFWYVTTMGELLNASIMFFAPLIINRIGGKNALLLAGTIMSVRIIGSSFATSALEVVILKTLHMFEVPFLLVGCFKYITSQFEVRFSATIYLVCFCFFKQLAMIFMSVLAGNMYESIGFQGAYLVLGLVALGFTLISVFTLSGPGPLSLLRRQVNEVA
Chain of Double-Trp mutant (G46W/G262W LacY) (P02920 whole entry G46W/G262W): as above
Chain of Mutant:Nb-9036 (P02920 whole entry G46W/G262W): as above

Molecule: O=[N+]([O-])c1ccc(O[C@H]2O[C@H](CO)[C@@H](O)[C@H](O)[C@H]2O)cc1 [nitrophenyl-α-D-glucopyranoside]
titration thermogram (control) (WT LacY [1]; ITC, 1 mM injected into WT LacY): small, relatively flat thermogram

Molecule: O=[N+]([O-])c1ccc(O[C@H]2O[C@H](CO)[C@H](O)[C@H](O)[C@H]2O)cc1 [α-NPG, p-nitrophenyl-α-D-galactopyranoside]
-TΔS (Mutant:Nb-9036; [5]): 34.2 (2.9) kJ/mol | Kd (Mutant:Nb-9036; [5]): ~300 nM and 300 nM | N (stoichiometry) (Mutant:Nb-9036; [5]): 0.6 (0.0) | ΔG (Mutant:Nb-9036; [5]): −37.5 (0.4) kJ/mol | ΔH (Mutant:Nb-9036; [5]): −71.7 (2.5) kJ/mol | fold decrease in Kd (increase in affinity) by Nb (Mutant:Nb-9036; Nb-9036:mutant complex versus mutant alone): ~19 fold | ΔΔG (Mutant:Nb-9036; [6]): [−7.2 ^**] kJ/mol | ΔΔH (Mutant:Nb-9036; [6]): [−29.6 ^**] kJ/mol | −TΔΔS (Mutant:Nb-9036; [6]): [22.4 ^*] kJ/mol | ΔΔH (Mutant:Nb-9036; [7]): -7.07 kcal/mol | −TΔΔS (Mutant:Nb-9036; [7]): 5.35 kcal/mol | -TΔS (Mutant:Nb-9065; [8]): 12.43 (0.9) kJ/mol | Kd (Mutant:Nb-9065; [8]): 7100 nM | N (stoichiometry) (Mutant:Nb-9065; [8]): 0.4 (0.0) | ΔG (Mutant:Nb-9065; [8]): −29.4 (0.2) kJ/mol | ΔH (Mutant:Nb-9065; [8]): −41.8 (1.05) kJ/mol | change in Kd by Nb (Mutant:Nb-9065; Nb-9065:mutant complex versus mutant alone): no detectable change | ΔΔG (Mutant:Nb-9065; [9]): [0.9^ns] kJ/mol | ΔΔH (Mutant:Nb-9065; [9]): [0.3^ns] kJ/mol | −TΔΔS (Mutant:Nb-9065; [9]): [0.6^ns] kJ/mol | -TΔS (WT LacY [1]; ITC at 25 °C, no Nb): −10.3 (3.6) kJ/mol | Kd (WT LacY [1]; ITC at 25 °C, no Nb): 28800 nM | N (stoichiometry) (WT LacY [1]; ITC at 25 °C, no Nb): 0.6 (0.1) | ΔG (WT LacY [1]; ITC at 25 °C, no Nb): −25.9 (0.2) kJ/mol | ΔH (WT LacY [1]; ITC at 25 °C, no Nb): −15.6 (3.4) kJ/mol | -TΔS [2]: 11.8 (0.3) kJ/mol | Kd [2]: 5000 nM | N (stoichiometry) [2]: 0.5 (0.0) | ΔG [2]: −30.3 (0.3) kJ/mol | ΔH [2]: −42.1 (0.0) kJ/mol | -TΔS (WT:Nb-9065; [10]): 21.0 (1.7) kJ/mol | Kd (WT:Nb-9065; [10]): 5700 nM | N (stoichiometry) (WT:Nb-9065; [10]): 0.5 (0.0) | ΔG (WT:Nb-9065; [10]): −30.0 (0.1) kJ/mol | ΔH (WT:Nb-9065; [10]): −51.0 (1.8) kJ/mol | fold decrease in Kd by Nb (WT:Nb-9065; Nb-9065:WT complex versus WT alone): 4 fold | ΔΔG (WT:Nb-9065; [11]): [−4.1 ^**] kJ/mol | ΔΔH (WT:Nb-9065; [11]): [−35.4 ^*] kJ/mol | −TΔΔS (WT:Nb-9065; [11]): [31.3 ^*] kJ/mol | -TΔS (WT:Nb-9036; [12]): 17.2 (0.5) kJ/mol | Kd (WT:Nb-9036; [12]): ~300 nM and 300 nM | N (stoichiometry) (WT:Nb-9036; [12]): 0.5 (0.1) | ΔG (WT:Nb-9036; [12]): −37.1 (0.6) kJ/mol | ΔH (WT:Nb-9036; [12]): −54.3 (1.1) kJ/mol | fold decrease in Kd (increase in affinity) by Nb (WT:Nb-9036; Nb-9036:WT complex versus WT alone): ~96 fold | ΔΔG (WT:Nb-9036; [13]): [−11.2 ^**] kJ/mol | ΔΔH (WT:Nb-9036; [13]): [−38.7 ^**] kJ/mol | −TΔΔS (WT:Nb-9036; [13]): [27.5 ^*] kJ/mol | ΔΔH (WT:Nb-9036; [14]): -9.25 kcal/mol | −TΔΔS (WT:Nb-9036; [14]): 6.57 kcal/mol

Molecule: IIA^Glc: a phosphotransferase protein of the glucose-specific phosphoenolpyruvate:carbohydrate phosphotransferase system (E. coli, unphosphorylated)
IIA^Glc binding (double-Trp mutant): does not bind | IIA^Glc binding (thermogram) (WT LacY:Nb-9036): no IIA^Glc binding | heat of IIA^Glc binding (WT LacY [3]): endothermic | IIA^Glc binding (thermogram) (WT LacY:Nb-9065): no IIA^Glc binding

binding result [4]: binds
B1: IIA^Glc, phosphotransferase protein of the glucose-specific phosphoenolpyruvate:carbohydrate phosphotransferase system (natural protein, E. coli, UniProt P69783 1-169, looked up)
chain: MGLFDKLKSLVSDDKKDTGTIEIIAPLSGEIVNIEDVPDVVFAEKIVGDGIAIKPTGNKMVAPVDGTIGKIFETNHAFSIESDSGVELFVHFGIDTVELKGEGFKRIAEEGQRVKVGDTVIEFDLPLLEEKAKSTLTPVVISNMDEIKELIKLSGSVTVGETPVIRIKK
